Measurements as given in article PMC8128165, “Effect of amino acids and amines on the activity of the recombinant ι-carbonic anhydrase from the Gram-negative bacterium Burkholderia territorii” (Journal of Enzyme Inhibition and Medicinal Chemistry, 2021).

test system: BteCAι; assay: stopped-flow CO2 hydration assay (activation); assay type: biochemical, Burkholderia territorii; details: activation constant (not an association constant); CO2 substrate; 10 mM HEPES pH 7.5, 0.1 M NaClO4; 25 °C; activator
Excerpt: stopped-flow CO2 hydration assay (activation) on BteCAι

Row | Structure (SMILES) | KA (μM)* / BteCAι^b [µM]
1 | N[C@H](Cc1ccccc1)C(=O)O [compound 4, D-Phe] | 9.4
2 | NCCc1c[nH]c2ccc(O)cc12 [compound 14, Serotonin] | 13.3
3 | N[C@@H](Cc1ccc(O)cc1)C(=O)O [compound 9, L-Tyr] | 8.0
4 | N[C@@H](Cc1cnc[nH]1)C(=O)O [compound 1, L-His] | 8.6
5 | CNC[C@H](O)c1ccc(O)c(O)c1 [compound 19, L-Adrenaline] | 9.7
6 | N[C@@H](CC(=O)O)C(=O)O [compound 21, L-Asp] | 8.4
7 | N[C@H](Cc1c[nH]c2ccccc12)C(=O)O [compound 8, D-Trp] | 6.1
8 | NCCc1ccc(O)c(O)c1 [compound 13, Dopamine] | 8.7
9 | Nc1ccc(C[C@H](N)C(=O)O)cc1 [compound 11, 4-H2N-L-Phe] | 6.9
10 | N[C@@H](Cc1ccc(O)c(O)c1)C(=O)O [compound 5, L-DOPA] | 4.3
11 | N[C@H](Cc1ccc(O)c(O)c1)C(=O)O [compound 6, D-DOPA] | 11.7
12 | NCCc1c[nH]cn1 [compound 12, Histamine] | 6.0
13 | N[C@H](Cc1ccc(O)cc1)C(=O)O [compound 10, D-Tyr] | 7.3
14 | N[C@@H](Cc1c[nH]c2ccccc12)C(=O)O [compound 7, L-Trp] | 10.2
15 | NCCN1CCNCC1 [compound 17, 1-(2-Aminoethyl)-piperazine] | 3.9
16 | NCCN1CCOCC1 [compound 18, 4-(2-Aminoethyl)-morpholine] | 12.0
17 | NC(=O)CC[C@H](N)C(=O)O [compound 24, L-Gln] | 5.8
18 | N[C@H](CCC(=O)O)C(=O)O [compound 23, D-Glu] | 8.5
19 | N[C@H](Cc1c[nH]cn1)C(=O)O [compound 2, D-His] | 6.2
